Assay results taken from ChEMBL document CHEMBL1201862, “PubChem BioAssay data set” (2004).
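Five concentrations, 48 hours, 96-well plates. Abbreviation: GI50, concentration required for 50% inhibition of growth.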 Activity calls are given as the source filed them. No stated cut-off is given here; in the data, active = GI50 up to about 1.1 µM and inactive = higher.

Key:
Assay in all cases: growth of human tumour cells (NCI), 48 h
[1] = tested on: IGROV-1
[2] = tested on: SF-268
[3] = tested on: T47D
[4] = tested on: PC-3
[5] = tested on: SF-295
[6] = tested on: HOP-62
[7] = tested on: EKVX
[8] = tested on: NCI-H522
[9] = tested on: LOX IMVI
[10] = tested on: A498
[11] = tested on: OVCAR-5
[12] = tested on: NCI/ADR-RES
[13] = tested on: SNB-75
[14] = tested on: HCC 2998
[15] = tested on: U-251
[16] = tested on: M14
[17] = tested on: HT-29
[18] = tested on: BT-549
[19] = tested on: SR

Measured: GI50

Clc1ccc(CSCc2ccc(Cl)cc2Cl)c(Cl)c1
inactive: [1] 41.8 µM | [2] 71 µM | [3] 22.5 µM | [4] 44.1 µM | [5] 37.3 µM | [6] > 100 µM | [7] 57.5 µM | [8] 24.8 µM | [9] 36.1 µM | [10] 40.2 µM | [11] > 100 µM | [12] > 100 µM | [13] 48.3 µM | [14] 26.3 µM | [15] 54 µM | [16] 79.8 µM | [17] 29.9 µM | [18] 97.5 µM

CC1=NN(c2ccccc2)C(=O)/C1=C1\SC(c2ccccc2)(c2ccccc2)c2ccccc21
inactive: [1] > 100 µM | [2] > 100 µM | [3] > 100 µM | [4] > 100 µM | [5] > 100 µM | [6] > 100 µM | [7] > 100 µM | [8] > 100 µM | [9] > 100 µM | [10] > 100 µM | [11] > 100 µM | [12] > 100 µM | [13] > 100 µM | [14] > 100 µM | [15] 3.78 µM | [16] > 100 µM | [17] 67.9 µM | [18] > 100 µM

CCOC(=O)c1nnsc1NC(=O)NN
inactive: [1] > 100 µM | [2] > 100 µM | [3] > 100 µM | [4] > 100 µM | [5] > 100 µM | [6] > 100 µM | [7] > 100 µM | [8] > 100 µM | [9] 82.2 µM | [10] > 100 µM | [11] > 100 µM | [12] > 100 µM | [13] > 100 µM | [14] > 100 µM | [15] > 100 µM | [16] > 100 µM | [17] > 100 µM | [18] > 100 µM

O=C1CC2OCC=C3CN4CCC56c7ccccc7N1C5C2C3CC46O (stereo not given)
inactive: [1] > 100 µM | [2] > 100 µM | [3] > 100 µM | [4] > 100 µM | [5] > 100 µM | [7] > 100 µM | [8] 47.5 µM | [9] > 100 µM | [10] 48.1 µM | [11] > 100 µM | [12] > 100 µM | [13] > 100 µM | [14] > 100 µM | [15] > 100 µM | [16] > 100 µM | [17] > 100 µM | [18] > 100 µM

CCOC(=O)CCC(NC(=O)c1ccc(NCc2ccc3nc(-c4ccccc4)c(Cl)nc3c2)c2ccccc12)C(=O)OCC (stereo not given)
inactive: [2] > 100 µM | [3] 13.9 µM | [4] > 100 µM | [5] > 100 µM | [6] > 100 µM | [7] > 100 µM | [8] 50.9 µM | [9] > 100 µM | [10] > 100 µM | [11] > 100 µM | [12] > 100 µM | [13] > 100 µM | [14] > 100 µM | [15] > 100 µM | [16] > 100 µM | [17] > 100 µM | [18] > 100 µM

OCC1CCCCCCCCCCC12SCCCS2 (stereo not given)
inactive: [1] > 100 µM | [2] > 100 µM | [3] 84.3 µM | [4] 71 µM | [6] > 100 µM | [7] > 100 µM | [8] > 100 µM | [9] > 100 µM | [11] > 100 µM | [12] > 100 µM | [13] > 100 µM | [15] > 100 µM | [16] > 100 µM | [17] > 100 µM | [18] > 100 µM | [19] > 100 µM

N#Cc1ccc(-c2nc3cc(Cl)ccc3[nH]2)cc1
inactive: [1] > 100 µM | [3] 35.6 µM | [4] 40.2 µM | [5] 44.6 µM | [6] > 100 µM | [7] 23.1 µM | [8] 32.4 µM | [12] 30.4 µM | [13] > 100 µM | [14] 38.1 µM | [15] 61.9 µM | [16] 79.1 µM | [17] 48.2 µM | [18] 68.2 µM | [19] 80 µM

NCC(Cc1ccccc1)P(=O)(O)O (stereo not given)
inactive: [1] > 100 µM | [2] > 100 µM | [3] > 100 µM | [4] > 100 µM | [5] > 100 µM | [6] > 100 µM | [7] > 100 µM | [8] > 100 µM | [9] > 100 µM | [10] > 100 µM | [11] > 100 µM | [12] > 100 µM | [13] > 100 µM | [14] > 100 µM | [15] > 100 µM | [16] > 100 µM | [17] > 100 µM | [18] > 100 µM

CCOc1cc(-c2nc3cc(F)ccc3s2)ccc1O
inactive: [1] 12.5 µM | [2] 15.7 µM | [3] 11.6 µM | [4] 14.5 µM | [5] 20 µM | [7] 10.8 µM | [8] 11.5 µM | [9] 16 µM | [10] 12.6 µM | [11] 18.7 µM | [12] 23 µM | [14] 26 µM | [15] 19.5 µM | [16] 17.2 µM | [17] 18.1 µM | [18] 16.1 µM

Nc1ncnc2c1ccn2CC=C(CO)CO
inactive: [1] > 100 µM | [2] > 100 µM | [3] > 100 µM | [4] > 100 µM | [5] > 100 µM | [6] > 100 µM | [7] > 100 µM | [8] > 100 µM | [9] > 100 µM | [10] > 100 µM | [11] > 100 µM | [12] > 100 µM | [13] > 100 µM | [14] > 100 µM | [15] > 100 µM | [16] > 100 µM | [17] > 100 µM | [18] > 100 µM

OCCSCc1cc2c(O)c(c1)Cc1cc(CSCCO)cc(c1O)Cc1cc(CSCCO)cc(c1O)Cc1cc(CSCCO)cc(c1O)C2
inactive: [1] 3.65 µM | [2] 2.88 µM | [3] 6.47 µM | [4] 3.51 µM | [5] 5.02 µM | [6] 5.01 µM | [7] 15 µM | [8] 2.18 µM | [9] 3.44 µM | [10] 6.15 µM | [11] 5.6 µM | [12] 22.2 µM | [14] 9.38 µM | [15] 4.48 µM | [16] 3.08 µM | [17] 2.88 µM | [18] 3.3 µM

COc1c2ccoc2nc2c(OC)c(OCC(O)C(C)(C)O)ccc12 (stereo not given) [EVOXINE]
inactive: [1] 70 µM | [2] > 100 µM | [3] > 100 µM | [4] > 100 µM | [5] > 100 µM | [7] > 100 µM | [8] > 100 µM | [9] > 100 µM | [10] > 100 µM | [11] > 100 µM | [12] > 100 µM | [13] 63.1 µM | [14] > 100 µM | [15] > 100 µM | [16] > 100 µM | [17] > 100 µM | [18] > 100 µM
